Assay results from US20260327214A1, “1,3,4-OXADIAZOLE DERIVATIVE COMPOUNDS AS HISTONE DEACETYLASE 6 INHIBITOR, AND USES THEREOF” (CHONG KUN DANG PHARMACEUTICAL CORP., priority 2022, published 2026).

Assays:
human recombinant HDAC6 = target: T1, human recombinant HDAC6 (Homo sapiens, UniProt Q9UBN7); assay: HDAC6 enzyme activity inhibition test (HDAC Fluorometric Drug Discovery Kit); format: biochemical; conditions: for HDAC6 selectivity (fold): HDAC6 over HDAC1; for IC50: human recombinant HDAC6, same protocol as HDAC1
T1 construct: purchased Calbiochem 382180
T1 sequence (Q9UBN7 1-1215): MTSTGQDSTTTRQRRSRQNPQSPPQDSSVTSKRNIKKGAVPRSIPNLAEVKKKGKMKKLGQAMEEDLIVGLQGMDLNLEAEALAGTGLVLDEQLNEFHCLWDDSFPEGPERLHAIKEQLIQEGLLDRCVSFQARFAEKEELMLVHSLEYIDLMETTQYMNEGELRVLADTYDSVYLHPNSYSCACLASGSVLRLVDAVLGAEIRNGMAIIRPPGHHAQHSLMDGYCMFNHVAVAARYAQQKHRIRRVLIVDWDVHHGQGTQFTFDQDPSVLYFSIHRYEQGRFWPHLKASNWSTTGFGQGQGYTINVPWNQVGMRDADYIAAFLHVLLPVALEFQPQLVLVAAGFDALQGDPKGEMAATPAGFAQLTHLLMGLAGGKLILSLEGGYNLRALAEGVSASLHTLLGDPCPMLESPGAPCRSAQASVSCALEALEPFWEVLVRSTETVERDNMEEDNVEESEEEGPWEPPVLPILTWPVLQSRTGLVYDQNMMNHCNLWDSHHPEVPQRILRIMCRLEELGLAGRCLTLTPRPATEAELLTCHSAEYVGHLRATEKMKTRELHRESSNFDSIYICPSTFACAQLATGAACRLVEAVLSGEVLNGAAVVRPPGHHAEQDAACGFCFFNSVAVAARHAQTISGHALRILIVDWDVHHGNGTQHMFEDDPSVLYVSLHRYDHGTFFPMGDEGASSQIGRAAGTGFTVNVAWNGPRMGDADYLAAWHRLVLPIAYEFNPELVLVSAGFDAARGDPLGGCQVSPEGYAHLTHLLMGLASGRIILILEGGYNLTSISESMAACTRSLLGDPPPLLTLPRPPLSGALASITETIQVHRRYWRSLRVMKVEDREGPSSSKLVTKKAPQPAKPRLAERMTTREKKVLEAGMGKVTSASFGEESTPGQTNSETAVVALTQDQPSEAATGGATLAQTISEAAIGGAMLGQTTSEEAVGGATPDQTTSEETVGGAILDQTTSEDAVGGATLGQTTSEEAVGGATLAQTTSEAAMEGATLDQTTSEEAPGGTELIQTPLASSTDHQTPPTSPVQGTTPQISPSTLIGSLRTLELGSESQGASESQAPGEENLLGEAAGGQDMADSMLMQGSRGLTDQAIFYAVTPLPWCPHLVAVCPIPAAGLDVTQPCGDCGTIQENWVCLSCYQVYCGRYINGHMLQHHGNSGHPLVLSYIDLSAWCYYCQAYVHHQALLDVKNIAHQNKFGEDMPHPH
Summary of the method: (§1)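 IC50 derived from fluorescence (Ex 360, Em 460) following 30 min development with Developer II. Each reaction held 0.3 μg human recombinant HDAC1 or HDAC6, 10 μM Fluor de Lys SIRT1 substrate and 5-fold serially diluted compound, incubated 60 min at 30 °C.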

human recombinant HDAC1 = target: T2, human recombinant HDAC1 (Homo sapiens, UniProt Q13547); assay: HDAC1 enzyme activity inhibition test (HDAC Fluorometric Drug Discovery Kit); format: biochemical; conditions: 30° C., 60 minutes, 10 μM substrate
T2 construct: purchased Enzo Life Science BML-SE456
T2 sequence (Q13547 whole entry): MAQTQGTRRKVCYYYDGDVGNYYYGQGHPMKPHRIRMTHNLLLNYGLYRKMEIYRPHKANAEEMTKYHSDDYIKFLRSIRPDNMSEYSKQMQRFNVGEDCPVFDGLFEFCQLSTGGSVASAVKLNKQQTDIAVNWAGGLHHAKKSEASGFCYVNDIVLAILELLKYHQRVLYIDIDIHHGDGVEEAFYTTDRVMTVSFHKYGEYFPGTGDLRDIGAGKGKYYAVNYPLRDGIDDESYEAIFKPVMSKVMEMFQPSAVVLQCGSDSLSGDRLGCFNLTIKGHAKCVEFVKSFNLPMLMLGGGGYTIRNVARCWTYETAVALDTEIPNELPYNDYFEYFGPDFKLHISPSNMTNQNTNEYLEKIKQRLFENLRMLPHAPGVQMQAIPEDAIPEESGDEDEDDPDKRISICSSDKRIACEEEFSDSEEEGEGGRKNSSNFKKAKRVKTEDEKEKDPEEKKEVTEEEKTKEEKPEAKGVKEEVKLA
Summary of the method: as §1

Structure (SMILES)	HDAC6 selectivity (fold) (human recombinant HDAC6)	IC50 (human recombinant HDAC6)	IC50 (human recombinant HDAC1)
O=c1oc(-c2ccc3scnc3c2)nn1Cc1ccc(-c2nnc(C(F)F)o2)cn1 [Compound 18, 5-(1,3-benzothiazol-5-yl)-3-[[5-[5-(difluoromethyl)-1,3,4-oxadiazol-2-yl]-2-pyridyl]methyl]-1,3,4-oxadiazol-2-one]	768 fold	0.0651 µM	> 50 µM
O=c1sc(-c2cccs2)nn1Cc1ccc(-c2nnc(C(F)F)o2)cn1 [Compound 44, 3-[[5-[5-(difluoromethyl)-1,3,4-oxadiazol-2-yl]2-pyridyl]methyl]-5-(2-thienyl)-1,3,4-thiadiazol-2-one]	704 fold	0.071 µM	> 50 µM
FC(F)c1nnc(-c2ccc(Cn3nc(-c4cccc(CN5CC[C@@H](F)C5)c4)oc3=S)nc2)o1 [Compound 89, 3-[[5-[5-(difluoromethyl)-1,3,4-oxadiazol-2-yl]-2-pyridyl]methyl]-5-[3-[[(3R)-3-fluoropyrrolidin-1-yl]methyl]phenyl]-1,3,4-oxadiazol-2-thione]	1027 fold	0.0487 µM	> 50 µM
CC(C)N1CCN(Cc2ccc(-c3nn(Cc4ccc(-c5nnc(C(F)F)o5)cn4)c(=S)o3)cc2)CC1 [Compound 77, 3-[[5-[5-(difluoromethyl)-1,3,4-oxadiazol-2-yl]-2-pyridyl]methyl]-5-[4-[(4-isopropylpiperazin-1-yl)methyl]phenyl]-1,3,4-oxadiazol-2-thione]	669 fold	0.0747 µM	> 50 µM
O=c1sc(-c2cccc(CN3CCN(C4CCC4)CC3)c2)nn1Cc1ccc(-c2nnc(C(F)F)o2)cn1 [Compound 64, 5-[3-[(4-cyclobutylpiperazin-1-yl)methyl]phenyl]-3-[[5-[5-(difluoromethyl)-1,3,4-oxadiazol-2-yl]-2-pyridyl]methyl]-1,3,4-thiadiazol-2-one]	418 fold	0.12 µM	> 50 µM
Fc1c(-c2nn(Cc3ccc(-c4nnc(C(F)F)o4)cn3)c(=S)o2)cccc1C1CCN(C2CCCC2)CC1 [Compound 82, 5-[3-(1-cyclopentyl-4-piperidyl)-2-fluoro-phenyl]-3-[[5-[5-(difluoromethyl)-1,3,4-oxadiazol-2-yl]-2-pyridyl]methyl]-1,3,4-oxadiazol-2-thione]	453 fold	0.11 µM	> 50 µM
FC(F)c1nnc(-c2ccc(Cn3nc(-c4cccnc4)oc3=S)nc2)o1 [Compound 52, 3-[[5-[5-(difluoromethyl)-1,3,4-oxadiazol-2-yl]-2-pyridyl]methyl]-5-(3-pyridyl)-1,3,4-oxadiazol-2-thione]	473 fold	0.106 µM	> 50 µM

Other lines, results leading:

HDAC6 selectivity (fold) (human recombinant HDAC6)	IC50 (human recombinant HDAC6)	IC50 (human recombinant HDAC1)	Structure (SMILES)
1020 fold	0.049 µM	> 50 µM	CCN(CC)Cc1ccc(-c2nn(Cc3ncc(-c4nnc(C(F)F)o4)cc3F)c(=S)o2)cc1 [Compound 109, 5-[4-(diethylaminomethyl)phenyl]-3-[[5-[5-(difluoromethyl)-1,3,4-oxadiazol-2-yl]-3-fluoro-2-pyridyl]methyl]-1,3,4-oxadiazol-2-thione]
1475 fold	0.0339 µM	> 50 µM	CNCc1ccc(-c2nn(Cc3ncc(-c4nnc(C(F)F)o4)cc3F)c(=S)o2)cc1 [Compound 108, 3-[[5-[5-(difluoromethyl)-1,3,4-oxadiazol-2-yl]-3-fluoro-2-pyridyl]methyl]-5-[4-(methylaminomethyl)phenyl]-1,3,4-oxadiazol-2-thione]
563 fold	0.0888 µM	> 50 µM	FC(F)c1nnc(-c2ccc(Cn3nc(-c4ccc(CN5CC[C@H](F)C5)s4)oc3=S)nc2)o1 [Compound 125, 3-[[5-[5-(difluoromethyl)-1,3,4-oxadiazol-2-yl]-2-pyridyl]methyl]-5-[5-[[(3S)-3-fluoropyrrolidin-1-yl]methyl]-2-thienyl]-1,3,4-oxadiazol-2-thione]
